{
  "source": "patent US20220003751A1",
  "about": "“METHOD FOR […] OF COLCHICINE-I[…]” (ASSISTANCE PUBLIQUE - HÔPITAUX DE PARIS, priority 2019, published 2022)",
  "key": {"[1]": {"test": "mortality rate by supposed ingested dose in colchicine overdose", "type": "in vivo, human", "method": "Although the dose ingested has an influence on the clinical picture, it is not, by itself, enough to allow prediction of the death of the patient. Indeed, the mortality rate in the three groups of supposed ingested dose equal to or less than 0.35 mg/kg, >0.35—equal or less than 0.7, and >0.7 were 0 (0%), 6/33 (18%), and 12/36 (33%) (Fisher's exact test: p<0.0001). The relation of mortality rate to the dose is statistically highly significant albeit being weak. Therefore, from a clinical viewpoint, other parameters reflecting the effects of the dose should be considered to define the likelihood of death in colchicine overdose."}, "[2]": {"conditions": "cited from earlier work"}},
  "data": [
    {"compound": "COc1cc2c(c(OC)c1OC)-c1ccc(OC)c(=O)cc1[C@@H](NC(C)=O)CC2", "note": "[colchicine, Colchicine]", "values": [
      {"measurement": "mortality rate", "setting": "[1]; supposed ingested dose >0.7 mg/kg, 12/36", "value": 33, "unit": "%"},
      {"measurement": "mortality rate", "setting": "[1]; supposed ingested dose >0.35 to equal or less than 0.7 mg/kg, 6/33", "value": 18, "unit": "%"},
      {"measurement": "mortality rate", "setting": "[1]; supposed ingested dose equal to or less than 0.35 mg/kg", "value": 0, "unit": "%"},
      {"measurement": "acute dose presumed to be fatal", "setting": "[2]", "value": "about 0.8 mg/kg"}
    ]}
  ]
}
